Laboratory results reported in article PMC8579695, “The Stringent Response Inhibits 70S Ribosome Formation in Staphylococcus aureus by Impeding GTPase-Ribosome Interactions” (mBio, 2021).

How the values were obtained:
[1] = target: Era association to the 30S ribosomal subunit (Staphylococcus aureus, UniProt Q2FGF6); assay: In vitro ribosome association assay (sucrose gradient, α-His Western immunoblot), Era; assay type: binding; conditions: 40 μM nucleotide; compared to apo, GTP, or GMPPNP-bound states
Description: (§1) It is well characterized that rRNA transcription decreases during the stringent response ([39]). In addition, the GTPase activity of ribosome assembly cofactors is inhibited by (p)ppGpp, both of which contribute to a reduction in mature ribosomes within the cell ([27]). To examine mechanistically how (p)ppGpp-GTPase interactions affect the ability of RA-GTPases to associate with ribosomal subunits, we examined the association of each GTPase to either the 30S or 50S ribosomal subunit in the presence of GDP, GTP, ppGpp, and pppGpp, as well as GMPPNP, a nonhydrolyzable analogue of GTP. The production and isolation of immature subunits, which can comprise several different immature states, introduces a large degree of heterogeneity, and so here we, and others, use homogenous mature particles as a system to examine the binding event, rather than the role of GTPase activity in downstream maturation ([11], [12], [29], [40], [41]). His-tagged GTPases were preincubated with highly pure, salt-washed 70S S. aureus ribosomes in a low-magnesium buffer to encourage ribosomal subunit dissociation, and the amount of each GTPase associated with each of the subunits was quantified by Western immunoblotting with anti-His antibodies after sucrose gradient separation. […]
(§2) FIG 2 (p)ppGpp and GDP binding reduces RA-GTPase association to the ribosome. […] After subunit separation and precipitation, bound proteins were detected in the 30S fraction using HRP-conjugated α-His antibodies. […] Bound proteins were detected in the 50S fraction using HRP-conjugated α-His antibodies. […]
(§3) A 500 nM concentration of recombinant 6×His-tagged RA-GTPase was incubated at room temperature for 5 min with 200 nM S. aureus 70S ribosomes in dissociation buffer (20 mM Tris [pH 7.5], 120 mM NH4Cl, 1.5 mM MgCl2, 2 mM β-mercaptoethanol) in the apo form and in the presence of 40 μM GTP, GMPPNP, GDP, ppGpp, or pppGpp. […] Gradients were fractionated by upward displacement of 250-μl aliquots, which were analyzed for RNA content at an absorbance of 260 nm. […]

[2] = tested on: HflX association to the 30S and 50S ribosomal subunits; assay: In vitro ribosome association assay (sucrose gradient, α-His Western immunoblot), HflX; assay type: binding, Staphylococcus aureus; conditions: 40 μM nucleotide; compared to apo, GTP, or GMPPNP-bound states
Description: as §1, §2, §3

Era association to the 30S ribosomal subunit, sequence (Q2FGF6 whole entry): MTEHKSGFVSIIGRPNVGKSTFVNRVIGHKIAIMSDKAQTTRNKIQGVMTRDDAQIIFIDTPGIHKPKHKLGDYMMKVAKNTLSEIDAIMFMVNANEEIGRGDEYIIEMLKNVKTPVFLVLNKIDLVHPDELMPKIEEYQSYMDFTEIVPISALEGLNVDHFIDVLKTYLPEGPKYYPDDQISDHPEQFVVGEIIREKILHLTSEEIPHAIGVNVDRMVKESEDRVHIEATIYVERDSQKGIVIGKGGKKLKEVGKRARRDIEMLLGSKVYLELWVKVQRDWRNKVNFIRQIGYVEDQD

SMILES | reduction in ribosome binding of Era [1] | reduction in ribosome binding of HflX [2]
Nc1nc2c(ncn2[C@@H]2O[C@H](COP(=O)(O)OP(=O)(O)O)[C@@H](OP(=O)(O)OP(=O)(O)O)[C@H]2O)c(=O)[nH]1 [ppGpp] | 2 fold | 2 fold
Nc1nc2c(ncn2[C@@H]2O[C@H](COP(=O)(O)OP(=O)(O)OP(=O)(O)O)[C@@H](OP(=O)(O)OP(=O)(O)O)[C@H]2O)c(=O)[nH]1 [pppGpp] | 2 fold | 2 fold
